Data set [1] in a line: Cytotoxicity against human HepG2.2.15 cells by MTT assay. The class given is cell-based, HepG2 2.2.15. In general terms: Tetrazolium assays rely on reduction of a dye to a coloured formazan, in cell work by metabolically active cells.
The test system of data set [2] is Hepatitis B virus. Kind of data set: Antiviral activity against HBV assessed as inhibition of viral surface antigen secretion in HepG2.2.15 cells by ELISA. In kind it is functional, organism-based. To be noted: HepG2 2.2.15.
Data set [3] can be described thus: Selectivity index, ratio of CC50 for human HepG2.2.15 cells to IC50 for HBV surface antigen secretion. The class given is functional.
Data set [4] has as its system Hepatitis B virus. The data set is described as follows: Antiviral activity against HBV assessed as inhibition of viral e-antigen secretion in HepG2.2.15 cells by ELISA. The class given is functional, organism-based. To be noted: HepG2 2.2.15. (In general: ELISA stands for enzyme-linked immunosorbent assay.)
Data set [5] in a line: Selectivity index, ratio of CC50 for human HepG2.2.15 cells to IC50 for HBV e-antigen secretion. The class given is functional.
Data set [6] deals with Human immunodeficiency virus 1. The data set is described as follows: Antiviral activity against HIV1 in human C8166 cells assessed as protection against viral-induced cytopathic effect by syncytium reduction assay. To be noted: Human immunodeficiency virus 1, C8166. The class given is functional, organism-based. A general note: Cytopathic effects are the visible damage that an infection or toxin causes in cultured cells.

A short description of data set [7]: Cytotoxicity against human C8166 cells after 72 hrs by MTT assay. In kind it is cell-based.
Data set [8] in a line: Selectivity index, ratio of CC50 for human C8166 cells to EC50 for HIV1. In kind it is toxicity, cell-based. To be noted: read-out: Ratio CC50/EC50.

pEC50, pIC50: −log10 of the molar value.

A word on the CC50: it is the concentration at which the toxic effect on the cells reaches its halfway point. Read a high CC50 as better tolerance by the cells. The term pIC50 denotes the negative decadic logarithm of the IC50, by convention in mol/L. By pEC50 is commonly meant the EC50 on a negative log10 scale, so that one unit is a factor of ten. The compound `COc1cc2c(cc1OC)[C@@H]1Cc3ccc(OC)c(OC)c3C(=O)N1CC2` displayed a CC50 in data set [1] of 3000 µM. In addition, the pIC50 in data set [2] was 3.85; in data set [4], less than 2.13. For the same compound, the results for the “Ratio CC50/IC50” value in data set [3] and in data set [5] were 22.4 and less than 1, respectively. Also, the pEC50 in data set [6] was 4.85. Besides, the CC50 at 72 h in data set [7] came out at 307 µM. Further, in data set [8], the selectivity ratio was determined as 18.8.

`CO[C@@H]1C(=O)C[C@]23CCN(C)[C@@]24C[C@@H](O[C@]14OC)c1cc2c(cc13)OCO2` [PERIGLAUCINE A] yielded a CC50 in data set [1] of 2960 µM. Moreover, the pIC50 in data set [2] is 2.98; in data set [4] it was 2.47. Moreover, the “Ratio CC50/IC50” value in data set [3] was 2.85; in data set [5] it was less than 1. In addition, the pEC50 in data set [6] is 3.69. This compound also gave a CC50 at 72 h in data set [7] of more than 536 µM. For the same compound, the selectivity ratio in data set [8] was 4.03.

The compound `CO[C@H]1C(=O)C[C@]23CCN(C)[C@@]24C[C@@H](O[C@]14OC)c1cc2c(cc13)OCO2` [PERIGLAUCINE B] gave a CC50 in data set [1] of 640 µM. The pIC50 in data set [2] was 3.33; in data set [4] it was 2.51. Moreover, the “Ratio CC50/IC50” value in data set [3] was 1.36; in data set [5], less than 1. For the same compound, the pEC50 in data set [6] is 3.41. In data set [7], this compound registered a CC50 at 72 h of more than 536 µM. Further, in data set [8], the selectivity ratio worked out at 1.61.

`COc1c(OC)c2c3c(nccc3c1OC)-c1cc(O)ccc1-2` [IMERUBRINE] gave a CC50 in data set [1] of more than 3880 µM. Further, the pIC50 is 3.03 in data set [2] and less than 2.41 in data set [4]. Further, the “Ratio CC50/IC50” value in data set [3] is more than 4.17. Moreover, the pEC50 in data set [6] was 4.96. In data set [7], the CC50 at 72 h was 493 µM. Also, the selectivity ratio in data set [8] is 45.7.

With `Cc1cn([C@H]2C[C@H](N=[N+]=[N-])[C@@H](CO)O2)c(=O)[nH]c1=O` [ZIDOVUDINE], in data set [6], the pEC50 is 7.97. Also, in data set [8], the selectivity ratio came out at 471.

Take `CO[C@@H]1C(=O)C[C@]23C[C@H](CC(C)=O)N(C)[C@@]24C[C@@H](O[C@]14OC)c1cc2c(cc13)OCO2` [PERIGLAUCINE D]: in data set [1], the midpoint of cytotoxicity, the CC50, lay at 2060 µM. The pIC50 is 3.17 in data set [2] and 2.52 in data set [4]. Further, the “Ratio CC50/IC50” value was 3.07 in data set [3] and less than 1 in data set [5]. For the same compound, in data set [6], the pEC50 is 3.48. In addition, the CC50 at 72 h in data set [7] is more than 466 µM. For the same compound, the selectivity ratio in data set [8] is 1.65.

Compound `CO[C@@H]1C(=O)C[C@]23CC(=O)N(C)[C@@]24C[C@@H](O[C@]14OC)c1cc2c(cc13)OCO2` [PERIGLAUCINE C] registered a cytotoxic concentration (CC50) in data set [1] of 2360 µM. Moreover, the figures for the pIC50 in data set [2] and in data set [4] were 2.76 and less than 2.43, respectively. Moreover, the “Ratio CC50/IC50” value is on record as 1.37 in data set [3] and less than 1 in data set [5]. For the same compound, the negative logarithm of the EC50 (pEC50) in data set [6] is 3.79. The CC50 at 72 h in data set [7] was more than 516 µM. Also, in data set [8], the selectivity ratio is 3.29.

`COc1ccc2c(c1OC)C(=O)N1CCc3cc4c(cc3[C@@H]1C2)OCO4` had a CC50 in data set [1] of more than 3400 µM. Also, the negative logarithm of the IC50 (pIC50) in data set [2] and in data set [4] was less than 2.47 each time.

Source of the values: ChEMBL document CHEMBL1150244, “Periglaucines A-D, anti-HBV and -HIV-1 alkaloids from Pericampylus glaucus” (J Nat Prod, 2008).
